Test results: patent publication US20260263481A1, “COMPOSITION FOR TREATING OR PREVENTING KIDNEY DISEASES” (ORGANOIDSCIENCES LTD., priority 2022, published 2026)

Experiments:
[1] = tested on: human renal tubule cell line HK-2; test: Reactive oxygen species (ROS) generation in HK-2 cells; assay type: cell-based
Procedure: After 48 hours of incubation, ROS generated in the HK-2 cells was analyzed.
Specifically, intracellular reactive oxygen species (ROS) levels were measured by fluorescence spectroscopy after treatment with bimatoprost and/or colistin. Saline containing 1% DMSO was used as a vehicle.

[2] = tested on: human renal tubule cell line HK-2; test: TUNEL assay for apoptosis in HK-2 cells; assay type: cell-based
Procedure: To evaluate the effect of PGF2α on kidney diseases, the influence of PGF2α on apoptosis in kidney cells induced by antibiotic treatment was assessed. Colistin, a type of antibiotic, is known to accumulate in proximal tubular cells and induce apoptosis by increasing the expression of the Fas death receptor or by increasing the generation of reactive oxygen species. […] After 48 hours of incubation, a TUNEL assay was conducted to assess apoptosis. Cells that tested positive in the TUNEL assay were considered apoptotic cells.
Specifically, a vehicle-treated group, a group treated with vehicle and colistin, and a group treated with bimatoprost and colistin were prepared. Apoptosis in HK-2 cells was analyzed using a TUNEL assay.

Escherichia coli = test: Paper disk antibacterial activity on LB medium; assay type: cell-based; conditions: 24 hours; for growth of E. coli: substance alone on paper disk
Procedure: Specifically, Escherichia coli, a Gram-negative bacterium, was spread onto an LB medium, and paper disks were treated with bimatoprost and/or colistin. Saline containing 1% DMSO was used as a vehicle. After placing the paper disks onto the LB medium, incubation was carried out for 24 hours.

C57BL/6N mice = test: Colistin-induced nephrotoxicity model in mice; assay type: in vivo; conditions: 14 days
Procedure: Specifically, a colistin-induced nephrotoxicity model was established using 6-week-old C57BL/6N mice. The control group (vehicle-treated group) was prepared by intraperitoneally injecting mice with vehicle (saline containing 1% DMSO) every 12 hours for 14 days. The colistin-treated group was prepared by intraperitoneally injecting colistin at 10 mg/kg every 12 hours for 14 days. The bimatoprost-treated group was prepared by intraperitoneally injecting bimatoprost at 1 mg/kg every 12 hours for 14 days. The bimatoprost and colistin co-treatment group was prepared by intraperitoneally injecting bimatoprost at 1 mg/kg and colistin at 10 mg/kg every 12 hours for 14 days. After 14 days of administration, tissue, blood, and kidneys were collected from the mice, and key indicators of kidney disease, including kidney color, body weight, blood urea nitrogen levels, blood creatinine levels, and expression of kidney injury marker-1 (KIM-1), were analyzed.

[3] = tested on: human renal tubule cell line HK-2; test: Cytotoxicity / cell viability assay in HK-2 cells
Procedure: Specifically, the human renal tubule cell line HK-2 was treated with PGF2α at a concentration of 50 μM and with colistin at 400 μg/mL. In the case of pretreatment with PGF2α, colistin was treated 24 hours after treatment with PGF2α, and the cells were cultured for 48 hours, followed by an assay to evaluate cytotoxicity. In the case of co-treatment, PGF2α and colistin were treated simultaneously, and the cells were cultured for 48 hours, followed by the assay.
Specifically, bimatoprost was treated to human renal tubule cell line HK-2 at concentrations of 0.1 μM, 0.5 μM, 1.0 μM, 5.0 μM, 10 μM, 20 μM, and 50 μM, and the vehicle-treated group was used as a control. In the case of pretreatment with bimatoprost, colistin was treated 24 hours after bimatoprost treatment, followed by incubation for 48 hours and a cytotoxicity assay. In the case of co-treatment, bimatoprost and colistin were treated simultaneously, followed by 48 hours of incubation and the cytotoxicity assay.

[4] = PGF2α 50 μM co-treated with colistin 400 μg/mL, 48 hours
[5] = bimatoprost 1 mg/kg + colistin 10 mg/kg i.p. every 12 hours
[6] = colistin 10 mg/kg i.p. every 12 hours

CCCCC[C@H](O)/C=C/[C@@H]1[C@@H](C/C=C\CCCC(=O)O)[C@@H](O)C[C@H]1O [PGF2α, prostaglandin F2α]
reduction of colistin-induced increase in ROS [1, 4]: approximately 1.5 fold
ROS levels ([1]; PGF2α alone, 50 μM, 48 hours): decreased
colistin-induced increase in apoptosis [2, 4]: reduced by about half

CCNC(=O)CCC/C=C\C[C@@H]1[C@@H](/C=C/[C@@H](O)CCc2ccccc2)[C@H](O)C[C@@H]1O [bimatoprost]
inhibitory effect on E. coli growth (Escherichia coli; colistin and bimatoprost together on paper disk): at the same level as that observed in the group treated with colistin alone
growth of E. coli (Escherichia coli): not inhibited
KIM-1 area compared to the colistin-treated group (C57BL/6N mice; [5]): reduced by about eight times
KIM-1 expression in kidney (C57BL/6N mice; [5]): barely observed
blood creatinine levels (C57BL/6N mice; [5]): lower than those in the colistin-treated group
blood urea nitrogen levels (C57BL/6N mice; [5]): lower than those in the colistin-treated group
body weight (C57BL/6N mice; [5]): weight loss was not observed
kidney color (C57BL/6N mice; [5]): recovered to a level similar to that of the vehicle-treated group
extent of cell death induced by colistin compared to cells not treated with bimatoprost ([3]; bimatoprost pretreated at 10 μM): reduced by approximately fourfold
effect on colistin-induced cell death ([3]; bimatoprost pretreatment 24 hours before colistin, then 48 hours): reduced colistin-induced cell death
colistin-induced increase in ROS ([1]; bimatoprost and colistin, level similar to vehicle-treated group): reduced to approximately half
number of apoptotic cells compared to the group treated with vehicle and colistin ([2]; bimatoprost and colistin co-treated): reduced by approximately threefold

colistin
growth of E. coli (Escherichia coli): markedly suppressed
KIM-1 expression in kidney (C57BL/6N mice; [6]): clearly observed
blood creatinine levels relative to vehicle-treated group (C57BL/6N mice; [6]): approximately 1.5 times
blood urea nitrogen levels relative to vehicle-treated group (C57BL/6N mice; [6]): approximately 1.5 times
body weight (C57BL/6N mice; [6]): reduction in body weight after day 6
kidney color (C57BL/6N mice; [6]): became paler
cells survived compared to those not treated with colistin ([3]; colistin 400 μg/mL, 48 hours): about 50%
ROS levels compared to cells not treated with colistin ([1]; colistin 400 μg/mL, 48 hours (Example 1-3)): more than fivefold
increase in ROS levels compared to the vehicle-treated group ([1]; colistin-treated group (Example 2-3), fluorescence spectroscopy): more than 2.5 fold
increase in apoptosis compared to cells not treated with colistin ([2]; colistin 400 μg/mL, 48 hours): approximately 30%
apoptotic cells (TUNEL) ([2]; vehicle and colistin vs vehicle-treated group (Example 2-2)): significant increase in apoptotic cells
